# Source: US9693983B2, “Use of glyceryl trinitrate for treating traumatic edema” (G. Pohl-Boskamp GmbH & Co. KG, priority 2010, dated 2017)
# Test system: traumatic edema
# Test: Topical application of GTN to traumatic edema, general observation
# Type: in vivo
# Description: The detumescence of the swelling associated with a traumatic edema is accelerated; instead of darkening of the skin, the healing occurs with a green, followed by a yellow, coloration of the affected skin area.
compound,measurement,setting,value
"O=[N+]([O-])OCC(CO[N+](=O)[O-])O[N+](=O)[O-] [GTN, glyceryl trinitrate]",typical swelling and darkening of the affected skin sites,"1.2 to 6 mg GTN on day of injury, then 0.8 to 1.6 mg GTN daily, topical",reduces and/or prevents
same,individual healing phases,compared to an untreated edema,significantly shortened
same,reduction of overall healing period for the treated edemas,compared to an untreated edema,one-half
same,healing of traumatic edema,topically applied,greatly accelerates
